Experimental data published in US20140335050A1, “METHODS, COMPOSITIONS, AND KITS FOR THE TREATMENT OF CANCER” (The General Hospital Corporation, priority 2011, published 2014).

What was measured:
Format in all cases: cell-based, human
[1] = system: MALME-3M melanoma cell line; assay: Antibody staining and flow cytometry (intracellular Melan-A/MART-1, gp100, TRP-2; surface MHC Class I); conditions: for MHC Class I, geometric mean of surface staining (W6/32): MALME, three days, IFN-β 5000 Units/ml
Method: (§1) Cells were fixed with 1% formaldehyde, permeabilized with 0.1% saponin, stained with monoclonal antibodies to melanocyte antigens. Antibodies were obtained with specificity for: MART-1 from Vector Labs (Burlingame, Calif.); gp100 HMB45 from DakoCytomation (Carpinteria, Calif.) and then visualized with goat anti-mouse FITC-conjugated secondary antibody from Invitrogen (Fredrick, Md.). The level of EGFP was determined by flow cytometry of unfixed cells that were washed and resuspended in 1×PBS.
(§2) Cells were plated at a density of 1×10^5 in 1 ml of medium in a 24-well plate and cultured for varying times as indicated in results. […] After incubation, cells were collected by trypsinization and then evaluated by flow cytometry.
(§3) Intracellular staining and flow cytometric analyses of cytoplasmic Melan-A/MART-1, and gp100 expression were performed as described previously. Cells were fixed with 1% formaldehyde, permeabilized with 0.1% saponin, stained with monoclonal antibodies to melanocyte antigens. Antibodies were obtained with specificity for: Melan-A/MART-1 from Vector Labs (Burlingame, Calif.); gp100/HMB45 from DakoCytomation (Carpinteria, Calif.) and then visualized with goat anti-mouse FITC-conjugated secondary antibody from Invitrogen (Frederick, Md.). The level of EGFP was determined by flow cytometry of unfixed cells washed and resuspended in 1×PBS. Surface staining of MHC Class I was carried out using the antibody W6/32 on cells harvested with Cell Stripper from MediaTech Inc. (Manassas, Va.) and carried out on ice.

[2] = system: MU89 MART::EGFP cell line; assay: Melan-A/MART-1 promoter-driven EGFP reporter, kinetics by flow cytometry; conditions: MU89 MART::EGFP (FIG. 11)
Method: FIG. 11 is a set of four graphs showing the kinetics of Melan-A/MART-1 increase. […] The same number of cells per well were plated in each well of a 24 well plate and drug was added on day zero. Each day cells were collected and assayed for that time point. Control untreated cells are shown for comparison. The data are from one representative experiment.
A kinetic analysis was performed to determine the effect of Hsp90 inhibition on Melan-A/MART-1 promoter activity over time. […] Reporter activity increases steadily for the first 72 hours of Hsp90 inhibition, and then plateaus. The need for continued presence of Hsp90 inhibitors in order for them to be effective (i.e. whether the drug can be removed after short exposure, or whether it must it be continually present) was assessed. […] To achieve full signal enhancement, it is desirable to retain the drug for at least 48 hours, after which the effect remains constant or slightly decreases.
The generation and application of EGFP reporter cells has been previously described. Briefly, a 1200 base pair human genomic DNA segment encompassing the Melan-A/MART-1 promoter was used to generate a construct driving expression of the EGFP reporter gene. Stable transfectants with this construct were generated in the low-antigen cell line A375 and the high-antigen line MM96L+ and MU89. The EGFP expression response patterns of these cells to IFN-beta and MAP kinase inhibitors recapitulates the antigen up-regulation of endogenous Melan-A/MART-1 induced by these agents.
as §3

[3] = system: U-118 MG glioma cell line; assay: Antibody staining and flow cytometry (intracellular gp100; surface MHC Class I/II); conditions: for Class I MHC, geometric mean of surface staining (W6/32): U-118
Method: as §1, §2, §3
Cell were seeded at 1×10^6 cells in a T25 flask with 10 ml of media for the 4 day IFN-beta pre-treatments. Cells were then harvested and plated in 24 well plate at 1×10^5 cells per well in 1 ml of media for 3 day treatments.
For surface staining of HLA Class I and II antigens, cells were harvested using CellStripper™ from Mediatech (Manassas, Va.). All staining steps were performed on ice. Following a first incubation with antibody to Class I (W6/32) or Class II (L243) for 30 minutes. Stained cells were washed twice with cold PBS and then stained with a goat anti-mouse FITC secondary antibody to allow for quantitative analysis by flow cytometry. For evaluation of cytoplasmic antigens, including Melan-A/MART-1 and gp100, cells were first fixed in paraformaldehyde and permeabilized with saponin as previously described. Staining for cytoplasmic antigens was carried out at room temperature (22° C.).

[4] = MALME-3M, 3 days, IFN-beta 5000 Units/ml, 17-AEP 1.0, PU-H71 0.3, CCT018159 10.0 μg/ml
[5] = U-118 MG, 3 days, IFN-beta 5000 Units/ml, 17-AEP 1.0, PU-H71 0.3, CCT018159 10.0 μg/ml
[6] = MALME-3M (BRAF M/WT, NRAS WT), 3 days, 17-AEP 0.25, CCT018159 5.00, PU-H71 0.30 μg/ml
[7] = U118 cells, Table 20, single agent or simultaneous combination

Row | Compound | Class I, geometric mean of surface staining (W6/32) [1, 4] | MART-1, geometric mean of intracellular staining [1, 4] | TRP-2, geometric mean of intracellular staining [1, 4] | gp100, geometric mean of intracellular staining [1, 4] | MHC Class I, geometric mean of surface staining (W6/32) [1] | Time at which the fluorescent reporter signal is significantly enhanced (as early as) [2] | Class I, geometric mean of surface staining (W6/32) [3, 5] | gp100, geometric mean of intracellular staining [3, 5] | also measured
1 | CO[C@H]1/C=C\C=C(/C)C(=O)NC2=CC(=O)C(NCCN3CCCC3)=C(C[C@@H](C)C[C@H](OC)[C@H](O)[C@@H](C)/C=C(\C)[C@@H]1OC(N)=O)C2=O [17-AEP] | 105 | 205 | 256 | 839 | 105 | 2 days | 117 | 61 | –
2 | CCc1cc(-c2n[nH]c(C)c2-c2ccc3c(c2)OCCO3)c(O)cc1O [CCT018159] | 72 | 291 | 222 | 823 | 72 | 2 days | 101 | 83 | HMB45, level of induction relative to untreated control cells [1, 6]: 3.63; MART-1, level of induction relative to untreated control cells [1, 6]: 2.48; Class I, fold increase relative to untreated control [1, 4]: 1.6 fold; MART-1, fold increase relative to untreated control [1, 4]: 2.5 fold; TRP-2, fold increase relative to untreated control [1, 4]: 2.1 fold; gp100, fold increase relative to untreated control [1, 4]: 3.6 fold; Class I, fold increase relative to untreated control [3, 5]: 2.0 fold; gp100, fold increase relative to untreated control [3, 5]: 1.4 fold
3 | CC(C)NCCCn1c(Sc2cc3c(cc2I)OCO3)nc2c(N)ncnc21 [PU-H71] | 137 | 226 | 279 | 511 | 137 | 2 days | – | 63 | MHC Class II, geometric mean of surface staining (L2443) ([3]; Giloma-118, three days, IFN-β 5000 Units/ml, IFN-γ 100 ng/ml, PU-H71 0.3 mg/ml): 4; MHC Class I, geometric mean of surface staining (W6/32) ([3]; Giloma-118, three days, IFN-β 5000 Units/ml, IFN-γ 100 ng/ml, PU-H71 0.3): 88; Class II induction, combination ([3]; U118, co-treatment with IFN-gamma and PU-H71): prevented; L243 (MHC Class II surface staining) ([3]; U118, single agent): 4.1; L243 (MHC Class II surface staining) [3, 7]: 6.3; W6/32 (MHC Class I surface staining) [3, 7]: 135.7; Class I MHC, geometric mean of surface staining (W6/32) ([3]; 4 day IFN-β pre-treatment (5000 Units/ml), then 3 days with fresh IFN-β, with PU-H71 0.3 where labelled (label IFN-β: no inhibitor)): 184; Class I MHC, geometric mean of surface staining (W6/32) ([3]; 4 day IFN-β pre-treatment (5000 Units/ml), then 3 days without IFN-β, with PU-H71 0.3 where labelled (label IFN-β: no inhibitor)): 224; Class I MHC, geometric mean of surface staining (W6/32) ([3]; single agent for 3 days, no IFN-β pre-treatment, IFN-β 5000 Units/ml, PU-H71 0.3): 138; MHC Class I, geometric mean of surface staining (W6/32) ([3]; U-118 glioma, three days, IFN-β 5000 Units/ml, PU-H71 0.075-0.3): 88
